What is called EC50 is the concentration needed to bring the measured effect to its halfway point.

Eight compounds from US20210087279A1, “REGULATABLE CHIMERIC ANTIGEN RECEPTOR” (Novartis AG, priority 2014, published 2021) can be followed below.

For experiment [1], the system named is NFAT activation in Jurkat cells with NFAT-LUC reporter (JNL). Nature of the experiment: Jurkat NFAT-LUC assay, peptide tag (myc/Flag) dimerization switch. The experiment is classed as cell-based. As for the experimental part: The non-regulatable CAR construct, 139scFv-BBZ, SEQ ID: 7, will be used as a control. Jurkat cells with NFAT-LUC reporter (JNL) were grown to the density of 0.5×10^6/ml in Jurkat cell growth media with puromycin at 0.5 μg/ml. For each transfection 2.5×10^6 cells were spun down at 100 g for 10 minutes. Two μg of DNA per construct was used per transfection. Amaxa Nucleofector solution V and supplement I were mixed and 100 μl was added into the tube with DNA construct. The mixture was then added to the cells and transferred to the electroporation cuvette. Electroporation was done under setting X-001 using Amaxa Nucleofector II Device. 0.5 ml of growth media was added immediately after eletroporation and the mixture were transferred into 2 ml growth media in one well of the 6-well plate. The cells were incubated in the 37° C. incubator with 5% CO2 overnight. Rabbit polyclonal antibody against myc tag was added to the cells which were transfected with RCAR construct with myc tag as the extracellular domain. The concentration of the polyclonal antibody was at 100 nM. One and half hour later, 100 nM of anti rabbit antibody was added in order to enhance cluster formation. The cell mixture was incubated at 37° C. for 18 hrs. Luciferase One Glo reagent 100 μl was added per well. The samples were incubated for 5 min at 37° C. and then luminescence was measured using a luminometer.
Similarly, a construct with Flag peptide tag as the extracellular domain was used to transfect reporter cells. Rabbit polyclonal antibody against Flag peptide tag was used at 100 nM; and to facilitate further clustering, an antibody against the rabbit polyclonal antibody was used at 100 nM. In addition, a construct with scFv 139 as the extracellular domain was used to transfect reporter cells, and EGFRvIII-Fc at 100 nM was used, and one and half hour later anti-Fc antibody was used.

Experiment [2] shares this test system. Nature of the experiment: Jurkat NFAT-LUC assay, EGFRvIII RCAR with extracellular FKBP/FRB switch. The format is cell-based. Particulars: 250 nM, external switch. The protocol: In this example, the switch is designed by fusing a leader sequence to the 139 scFv followed by linker and the first switch domain—FKBP, a hinge region and a transmembrane region (SEQ ID NO: 31). The second construct is designed by fusing a leader sequence to the FRB switch domain, a transmembrane region and the intracellular signaling domains 4-1BB followed by CD3zeta (SEQ ID NO: 32). The extracellular switch transfections and activations were carried out essentially as described for the intacellular switches in Example 1.

Experiment [3] has the same test system. Nature of the experiment: Jurkat NFAT-LUC reporter assay, EGFRvIII RCAR with intracellular FKBP/FRB switch. The experiment is classed as cell-based. As for the experimental part: Jurkat cells with NFAT-LUC reporter (JNL) were grown to the density of 0.5×10^6/ml in Jurkat cell growth media with puromycin at 0.5 μg/ml. For each transfection 2.5×10^6 cells were spin down at 100 g for 10 minutes. Two μg of DNA per construct were used per transfection. Amaxa Nucleofector solution V and supplement I was mixed and 100 μl was added into the tube with DNA construct. The mixture was then added to the cells and transferred to the electroporation cuvette. Electroporation was done under setting X-001 using Amaxa Nucleofector II Device. 0.5 ml of growth media was added immediately after eletroporation and the mixture were transferred into 2 ml growth media in one well of the 6-well plate. After one hour, A/Z compound was applied at the final concentration of 500 nM. The cells were incubated in the 37° C. incubator with 5% CO2 overnight for 18 hrs. Tissue culture plate was coated with 5 μg/ml of EGFRvIII-Fc or IgG1-Fc for 2 hrs, blocked with the blocking buffer (DPBS with 5% serum) for 1 hour. The transfected cells with or without A/Z compound were resuspended and added to the target plate with 100 μl per well and incubated for 18 hrs. Luciferase One Glo reagent 100 μl was added per well. The samples were incubated for 5 min at 37° C. and then luminescence is measured using a luminometer.
Specifically, JNL were grown to the density of 0.5×10^6/ml in Jurkat cell growth media with puromycin at 0.5 μg/ml. For each transfection 2.5×10^6 cells were spin down at 100 g for 10 minutes. Two μg of DNA per construct were used per transfection. Amaxa Nucleofector solution V and supplement I was mixed and 100 μl was added into the tube with DNA construct. […] The samples were incubated for 5 min at 37° C. and then luminescence is measured using a luminometer.
To determine the dose response, rapaloque (“A/C heterodimerizer” AP21967), at various concentrations, was applied to the transfected cells that were cotransfected with EGFRvIII clone 139-CD8alphaTM-FKBP (SEQ ID NO: 5, construct 66) and FRB-4-1BB-CD3zeta (SEQ ID NO: 6, construct 67) and NFAT activation was measured. […]
(In general: Reporter assays use an easily measured gene product as a stand-in for the process of interest.)

Experiment [4] deals with NFAT activation in Jurkat cells with NFAT-LUC reporter (JNL), PDL1-Fc target. Nature of the experiment: Activation assay of redirected inhibitory PD1 CAR / PD1 RCAR. The experiment is classed as cell-based. The protocol:
Jurkat cells with NFAT-LUC reporter (JNL) were grown to the density of 0.5×10^6/ml in Jurkat cell growth media with puromycin at 0.5 μg/ml. For each transfection 3×10^6 cells were spin down at 100 g for 10 minutes. Four μg DNA per construct were used per transfection. Amaxa Nucleofector solution V and supplement I was mixed and 100 μl was added into the tube with DNA construct. The mixture was then added to the cells and transferred to the electroporation cuvette. Electroporation was done under setting X-001 using Amaxa Nucleofector II Device. 0.5 ml of growth media was added immediately after eletroporation and the mixture were transferred into 2 ml growth media in one well of the 6-well plate. After two hours, the rapalogue compound at various concentrations was added to cells. The cells were applied to tissue culture plate wells that were coated by the target. Tissue culture plate was coated with 5 μg/ml of PDL1-Fc or IgG1-Fc or any target for 2 hrs at 37° C., then blocked with the blocking buffer (DPBS with 5% serum) for 30 minutes. The transfected cells were added to the target plate with 100 μl per well and incubated further for 16 hrs. Luciferase One Glo reagent 100 μl was added per well. The samples were incubated for 5 min at 37° C. and then luminescence is measured using Envision plate reader. […]

The target in experiment [5] is biotinylated FKBP in the presence of everolimus. Put plainly: FRB direct binding assay (AlphaLISA). To be noted: 30 nM biotinylated FKBP and FLAG FRB protein; everolimus serial diluted from 600 nM. As for the experimental part: FRB mutations were also ranked in an alternative assay format. […] All dilutions were made in 1× AlphaLISA Immunoassay buffer (PerkinElmer). Anti-Flag acceptor beads (PerkinElmer) were added at 10 ug/ml final concentration and incubated for one hour at room temperature. Streptavidin donor beads (PerkinElmer), were then added at a final concentration of 40 ug/ml and the plate was protected from light and incubated for 30 minutes at room temperature. The plate was then read on the PerkinElmer EnVision Multiplate reader equipped with the Alpha Module using excitation of 680 nm and a 570 nm Emission filter.

The subject of experiment [6] is reporter under NFAT control in JNL cells. Put plainly: Dimerization molecule dose response, single vector construct 143775 in JNL cells, CD19 target. To be noted: nM to sub-nM doses. The experiment is classed as cell-based. The source says: The constructs and viral particles were made and tested essentially as described in Example 11. Viral particles were introduced into JNL cells and evaluated for activity essentially as described in Example 1 except that the target was CD19 (as opposed to EGFRviii).
Construct 143775 was introduced into cells and the affect of dimerization molecule concentration on activation evaluated essentially as described in Example 14.

biotinylated FKBP in the presence of everolimus, sequence (P62942 2-108 limits assumed): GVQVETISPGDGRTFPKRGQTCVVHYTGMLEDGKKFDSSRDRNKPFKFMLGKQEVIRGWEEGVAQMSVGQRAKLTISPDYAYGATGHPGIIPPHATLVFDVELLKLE

For “RCAR with c-myc peptide tag: c-myc peptide tag fused to linker, 4-1BB and CD3zeta, SEQ ID NO: 21”, the “activation after addition of anti rabbit antibody” value in experiment [1] (anti-myc antibody 100 nM plus anti rabbit antibody 100 nM) is given as “further enhanced”. Also, the NFAT activity result in experiment [1] (rabbit polyclonal anti-myc antibody 100 nM, compared to other antibodies) is reported as “higher NFAT activity”.

In the case of `CO[C@H]1[C@@H](O)[C@H](C)C[C@H](C)/C=C/C=C/C=C(\C)[C@@H](c2c[nH]c3c(C)cccc23)C[C@@H]2CC[C@@H](C)[C@@](O)(O2)C(=O)C(=O)N2CCCC[C@H]2C(=O)O[C@H]([C@H](C)CC2CC[C@@H](O)[C@H](OC)C2)C[C@H](O)[C@H](C)/C=C(\C)[C@H]1O` (some centres unmarked) [AP21967], the target regulated activation result is “significant target regulated activation” in experiment [2] and “significant target regulated activation” in experiment [3] (500 nM, EGFRvIII-Fc target, FIG. 12A). In addition, the “fold of induction of NFAT mediated by the target” value in experiment [3] (0.8 nM rapalogue, constructs 66 and 67) is 2-3 fold. The “fold activation of NFAT” value in experiment [3] (500 nM to as low as 20 nM, constructs 66 and 67, FIG. 12B) is recorded as “remained relatively constant”. For the same compound, the “induction of signaling by PDL-1 target” value in experiment [4] (500 nM AP21967, PD1 RCAR (PD1-ECD-TM-FRB and FKBP-41BB-CD3 zeta)) is reported as “significant induction of signaling”. The “dose response, activation of NFAT signaling” value in experiment [4] (varying concentrations, PD1 RCAR, FIG. 18) is listed as “potent even at sub nM concentration”.

On to “T2098L: FRB point mutant; His-FRB SEQ ID NO: 209, His-FLAG-FRB SEQ ID NO: 215”, for which the EC50 in experiment [5] is 1.44 nM.

With `CO[C@H]1C[C@@H]2CC[C@@H](C)[C@@](O)(O2)C(=O)C(=O)N2CCCC[C@H]2C(=O)O[C@H]([C@H](C)C[C@@H]2CC[C@@H](O)[C@H](OC)C2)CC(=O)[C@H](C)/C=C(\C)[C@@H](O)[C@@H](OC)C(=O)[C@H](C)C[C@H](C)/C=C/C=C/C=C/1C` [rapamycin], in experiment [6], the activation result is reported as “effective at a broad range of concentrations”.

For “E2032I: FRB point mutant; His-FRB SEQ ID NO: 207, His-FLAG-FRB SEQ ID NO: 213”, the EC50 in experiment [5] worked out at 2.46 nM.

For the compound “Wild type FRB: wild-type FRB; His-FRB SEQ ID NO: 206 (competition), His-FLAG-FRB SEQ ID NO: 212 (direct binding)”, the EC50 in experiment [5] was 3.9 nM.

With “E2032L: FRB point mutant; His-FRB SEQ ID NO: 208, His-FLAG-FRB SEQ ID NO: 214”, the EC50 in experiment [5] was determined as 2.15 nM.

On to “RCAR with Flag tag: flag peptide tag fused to linker, 4-1BB and CD3zeta, SEQ ID NO: 20”, for which the activation result in experiment [1] (rabbit polyclonal anti-Flag antibody and anti-rabbit antibody, 100 nM each) is recorded as “only showed activation when both crosslinking reagents were added”.
